Measurements: patent US20230081426A1, “COMPOUNDS AND METHODS FOR KRAS MODULATION AND INDICATIONS THEREFOR” (Plexxikon Inc., priority 2020, published 2023)

Key:
[1] = biological target: T1, G12D-mutant human KRAS (amino acid residues 1-188) (Homo sapiens, UniProt P01116, G12D); test: KRAS Binding Disruption Assay (AlphaScreen; biotinylated KRpep-2d analogue or RAF1-RBD), G12D; details: KRAS G12D; geometric mean; read-out: KRAS GMean IC50 (uM) MUTATION: G12D
T1 construct: G12D or G12C-mutant human KRAS (amino acid residues 1-188) with FLAG tag; made in house; host or cells: E. coli
Outline: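 Displacement format with mutant KRAS, biotinylated KRpep-2d analogue or RAF1-RBD (5-20 nM each) at pH 7.5 with 5 mM MgCl2.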

[2] = biological target: T2, G12V-mutant human KRAS (amino acid residues 1-188) (Homo sapiens, UniProt P01116, G12V); test: KRAS Binding Competition Assay (AlphaScreen; biotinylated KRpep-2d analogue), G12V; details: geometric mean, read-out: KRAS GMean IC50 (uM) MUTATION: G12V
T2 construct: G12V-mutant human KRAS (amino acid residues 1-188) with FLAG tag was purified from E. coli; made in house; host or cells: E. coli

| IC50 [1] | IC50 [2] | Compound |
| --- | --- | --- |
| 0.0001 to 10 µM | 0.0001 to 10 µM | CCOC(=O)CNC(=O)N1[C@@H]2CC[C@H]1CN(c1nc(OCC34CCCN3CCC4)nc3cc(-c4cc(O)cc5ccccc45)ccc13)C2 [P-0090, ethyl ((1R,5S)-3-(7-(3-hydroxynaphthalen-1-yl)-2-((tetrahydro-1H-pyrrolizin-7a(5H)-yl)methoxy)quinazolin-4-yl)-3,8-diazabicyclo[3.2.1]octane-8-carbonyl)glycinate] |
| 0.0001 to 10 µM | 0.0001 to 10 µM | C[C@@H](O)C(=O)N1[C@@H]2CC[C@H]1CN(c1nc(OC[C@@H]3CCCN3C)nc3c(F)c(-c4cc(O)cc5ccccc45)ccc13)C2 [P-0395, (R)-1-((1R,5S)-3-(8-fluoro-7-(3-hydroxynaphthalen-1-yl)-2-(((S)-1-methylpyrrolidin-2-yl)methoxy)quinazolin-4-yl)-3,8-diazabicyclo[3.2.1]octan-8-yl)-2-hydroxypropan-1-one] |
| 0.0001 to 10 µM | 10 to 100 µM | Oc1cc(-c2ccc3c(N4C[C@H]5CC[C@@H](C4)N5)nc(NCC45CCCN4CCC5)nc3c2F)c2ccccc2c1 [P-0631, 4-(4-((1R,5S)-3,8-diazabicyclo[3.2.1]octan-3-yl)-8-fluoro-2-(((tetrahydro-1H-pyrrolizin-7a(5H)-yl)methyl)amino)quinazolin-7-yl)naphthalen-2-ol] |
| 0.0001 to 10 µM | 10 to 100 µM | CN1C2CCC1(COc1nc(N3C[C@H]4CC[C@@H](C3)N4)c3ccc(-c4cc(O)cc5ccccc45)cc3n1)CC2 [P-0185, 4-(4-((1R,5S)-3,8-diazabicyclo[3.2.1]octan-3-yl)-2-((7-methyl-7-azabicyclo[2.2.1]heptan-1-yl)methoxy)quinazolin-7-yl)naphthalen-2-ol] |
| 10 to 100 µM | 10 to 100 µM | Cc1cccc(N)c1-c1ccc2c(N3[C@@H]4CC[C@H]3CNC4)nc(OC[C@@H]3CCCN3C)nc2c1 [P-0291, 2-(4-((1R,5S)-3,8-diazabicyclo[3.2.1]octan-8-yl)-2-(((S)-1-methylpyrrolidin-2-yl)methoxy)quinazolin-7-yl)-3-methylaniline] |
| 10 to 100 µM | 100 to 1000 µM | CN1CCC[C@H]1COc1nc(N2C[C@H]3CC[C@@H](C2)N3)c2ccc(-c3cncc(Cl)c3Cl)cc2n1 [P-0234, 4-((1R,5S)-3,8-diazabicyclo[3.2.1]octan-3-yl)-7-(4,5-dichloropyridin-3-yl)-2-(((S)-1-methylpyrrolidin-2-yl)methoxy)quinazoline] |
| 10 to 100 µM | 10 to 100 µM | CN1CCC[C@H]1COc1nc(N2[C@@H]3CC[C@H]2CNC3)c2ccc(-c3cc([N+](=O)[O-])cc4ccccc34)cc2n1 [P-0263, 4-((1R,5S)-3,8-diazabicyclo[3.2.1]octan-8-yl)-2-(((S)-1-methylpyrrolidin-2-yl)methoxy)-7-(3-nitronaphthalen-1-yl)quinazoline] |
| 0.0001 to 10 µM | 0.0001 to 10 µM | O=C(N[C@@H]1CCCNC1)N1[C@@H]2CC[C@H]1CN(c1nc(OCC34CCCN3CCC4)nc3cc(-c4cc(O)cc5ccccc45)ccc13)C2 [P-0143, (1R,5S)-3-(7-(3-hydroxynaphthalen-1-yl)-2-((tetrahydro-1H-pyrrolizin-7a(5H)-yl)methoxy)quinazolin-4-yl)-N-((R)-piperidin-3-yl)-3,8-diazabicyclo[3.2.1]octane-8-carboxamide] |
| 0.0001 to 10 µM | 10 to 100 µM | CC(C)(COc1nc(N2C[C@H]3CC[C@@H](C2)N3)c2ccc(-c3cc(O)cc4ccccc34)c(F)c2n1)NC(N)=O [P-0619, 1-(1-((4-((1R,5S)-3,8-diazabicyclo[3.2.1]octan-3-yl)-8-fluoro-7-(3-hydroxynaphthalen-1-yl)quinazolin-2-yl)oxy)-2-methylpropan-2-yl)urea] |
| 10 to 100 µM | 0.0001 to 10 µM | CN1CCC[C@H]1COc1nc(N2C[C@H]3CC[C@@H](C2)N3C(=O)CC#N)c2cc(F)c(-c3cc(O)cc4ccccc34)c(F)c2n1 [P-0464, 3-((1R,5S)-3-(6,8-difluoro-7-(3-hydroxynaphthalen-1-yl)-2-(((S)-1-methylpyrrolidin-2-yl)methoxy)quinazolin-4-yl)-3,8-diazabicyclo[3.2.1]octan-8-yl)-3-oxopropanenitrile] |
| 0.0001 to 10 µM | 0.0001 to 10 µM | Fc1c(-c2c[nH]c3cccc(C(F)F)c23)ccc2c(N3C[C@H]4CC[C@@H](C3)N4)nc(OCC34CCCN3CCC4)nc12 [P-0625, 4-((1R,5S)-3,8-diazabicyclo[3.2.1]octan-3-yl)-7-(4-(difluoromethyl)-1H-indol-3-yl)-8-fluoro-2-((tetrahydro-1H-pyrrolizin-7a(5H)-yl)methoxy)quinazoline] |
| 10 to 100 µM | 10 to 100 µM | CN1CCC[C@H]1COc1nc(N2CC3CCC(C2)N3)c2ccc(N3CC(O)Cc4ccccc43)cc2n1 (mixture of isomers) [P-0256, 1-(4-((1R,5S)-3,8-diazabicyclo[3.2.1]octan-3-yl)-2-(((RS)-1-methylpyrrolidin-2-yl)methoxy)quinazolin-7-yl)-1,2,3,4-tetrahydroquinolin-3-ol] |
| 0.0001 to 10 µM | 100 to 1000 µM | CN1CCC[C@H]1COc1nc(N2C[C@H]3CC[C@@H](C2)N3)c2ccc(-c3cccc4ccccc34)cc2n1 [P-0337, 4-((1R,5S)-3,8-diazabicyclo[3.2.1]octan-3-yl)-2-(((S)-1-methylpyrrolidin-2-yl)methoxy)-7-(naphthalen-1-yl)quinazoline] |
| 0.0001 to 10 µM | 10 to 100 µM | Cc1ccc2[nH]ncc2c1-c1ccc2c(N3C[C@H]4CC[C@@H](C3)N4)nc(OCC34CCCN3CCC4)nc2c1F [P-0101, 4-((1R,5S)-3,8-diazabicyclo[3.2.1]octan-3-yl)-8-fluoro-7-(5-methyl-1H-indazol-4-yl)-2-((tetrahydro-1H-pyrrolizin-7a(5H)-yl)methoxy)quinazoline] |

The remaining lines, values behind:

| Compound | IC50 [1] | IC50 [2] |
| --- | --- | --- |
| CN1CCC[C@H]1COc1nc(N2CC3CCC2CN3)c2ccc(-c3cc(O)cc4ccccc34)c(F)c2n1 (stereo partly drawn) [P-0327, 4-(4-(2,5-diazabicyclo[2.2.2]octan-2-yl)-8-fluoro-2-(((S)-1-methylpyrrolidin-2-yl)methoxy)quinazolin-7-yl)naphthalen-2-ol] | 0.0001 to 10 µM | 10 to 100 µM |
| CN(C)C(=O)CCc1nc(N2[C@@H]3CC[C@H]2CNC3)c2ccc(-c3cc(O)cc4ccccc34)cc2n1 [P-0199, 3-(4-((1R,5S)-3,8-diazabicyclo[3.2.1]octan-8-yl)-7-(3-hydroxynaphthalen-1-yl)quinazolin-2-yl)-N,N-dimethylpropanamide] | 10 to 100 µM | 10 to 100 µM |
| CN1CCC[C@H]1COc1nc(N2CC3COCC(C2)N3C(=O)CC2SC(=O)NC2=O)c2cc(Cl)c(-c3cc(O)cc4ccccc34)c(F)c2n1 (stereo partly drawn) [P-0358, 5-(2-(7-(6-chloro-8-fluoro-7-(3-hydroxynaphthalen-1-yl)-2-(((S)-1-methylpyrrolidin-2-yl)methoxy)quinazolin-4-yl)-3-oxa-7,9-diazabicyclo[3.3.1]nonan-9-yl)-2-oxoethyl)thiazolidine-2,4-dione] | 0.0001 to 10 µM | 0.0001 to 10 µM |
| CN(C)c1ccc(Nc2nc(N3C[C@H]4CC[C@@H](C3)N4)c3cc(Cl)c(-c4c(O)cccc4F)c(F)c3n2)cc1 [P-0391, 2-(4-((1R,5S)-3,8-diazabicyclo[3.2.1]octan-3-yl)-6-chloro-2-((4-(dimethylamino)phenyl)amino)-8-fluoroquinazolin-7-yl)-3-fluorophenol] | 0.0001 to 10 µM | 0.0001 to 10 µM |
| CN1CCC[C@H]1COc1nc(N2[C@@H]3CC[C@H]2CN(CC(=O)N2CCC(N)CC2)C3)c2ccc(-c3cc(O)cc4ccccc34)cc2n1 [P-0274, 1-(4-aminopiperidin-1-yl)-2-((1R,5S)-8-(7-(3-hydroxynaphthalen-1-yl)-2-(((S)-1-methylpyrrolidin-2-yl)methoxy)quinazolin-4-yl)-3,8-diazabicyclo[3.2.1]octan-3-yl)ethan-1-one] | 0.0001 to 10 µM | 100 to 1000 µM |
| CN1CCC[C@H]1COc1nc(N2C[C@H]3CC[C@@H](C2)N3C(=O)Cc2cnn(C)c2)c2ccc(-c3cc(O)cc4ccccc34)c(F)c2n1 [P-0402, 1-((1R,5S)-3-(8-fluoro-7-(3-hydroxynaphthalen-1-yl)-2-(((S)-1-methylpyrrolidin-2-yl)methoxy)quinazolin-4-yl)-3,8-diazabicyclo[3.2.1]octan-8-yl)-2-(1-methyl-1H-pyrazol-4-yl)ethan-1-one] | 0.0001 to 10 µM | 0.0001 to 10 µM |
| CC(C)(CN)COc1nc(N2C[C@H]3CC[C@@H](C2)N3)c2ccc(-c3cc(O)cc4ccccc34)c(F)c2n1 [P-0618, 4-(2-(3-amino-2,2-dimethylpropoxy)-4-((1R,5S)-3,8-diazabicyclo[3.2.1]octan-3-yl)-8-fluoroquinazolin-7-yl)naphthalen-2-ol] | 0.0001 to 10 µM | 10 to 100 µM |
| CN1CCC[C@H]1COc1nc(N2[C@@H]3CC[C@H]2CN(C(=O)CS(N)(=O)=O)C3)c2ccc(-c3cc(O)cc4ccccc34)cc2n1 [P-0315, 2-((1R,5S)-8-(7-(3-hydroxynaphthalen-1-yl)-2-(((S)-1-methylpyrrolidin-2-yl)methoxy)quinazolin-4-yl)-3,8-diazabicyclo[3.2.1]octan-3-yl)-2-oxoethane-1-sulfonamide] | 10 to 100 µM | 10 to 100 µM |
| CN1CCC[C@H]1COc1nc(N2[C@@H]3CC[C@H]2CN(CCO)C3)c2ccc(-c3cc(O)cc4ccccc34)cc2n1 [P-0145, 4-(4-((1R,5S)-3-(2-hydroxyethyl)-3,8-diazabicyclo[3.2.1]octan-8-yl)-2-(((S)-1-methylpyrrolidin-2-yl)methoxy)quinazolin-7-yl)naphthalen-2-ol] | 10 to 100 µM | 10 to 100 µM |
| CN1CCC[C@H]1COc1nc(N2[C@@H]3CC[C@H]2CNC3)c2ccc(-c3cc(O)cc4cccnc34)cc2n1 [P-0262, 8-(4-((1R,5S)-3,8-diazabicyclo[3.2.1]octan-8-yl)-2-(((S)-1-methylpyrrolidin-2-yl)methoxy)quinazolin-7-yl)quinolin-6-ol] | 10 to 100 µM | 10 to 100 µM |
